# What was measured:
# c-Met (h) = c-Met (h) (Homo sapiens (Human), UniProt P08581); test: HTRF KinEASE TK kinase inhibition assay, c-Met; format: biochemical
# Axl kinase = Axl kinase (Homo sapiens (Human), UniProt P30530); test: HTRF KinEASE TK kinase inhibition assay, Axl; format: biochemical
# RET = RET (Homo sapiens (Human), UniProt P07949); test: HTRF KinEASE TK kinase inhibition assay, RET; format: biochemical
# Protocol: A study on inhibition of protein kinases activity at in vitro biochemical level
# Material and method: kinases such as c-Met, VEGFR-2, Axl and RET, obtained from Invitrogen; HTRF KinEASE; TK kit (Cisbio Company); 384-well plate (Greiner Company); ATP (Sigma Company), MgCl2 (Sigma Company); PHERAstar FS multifunctional plate reader (BMG Company); conventional centrifuge (StaiteXiangyi Company); incubator (Binder Company).
# Preparation of working solution of the compounds: Before test, aliquots of the compounds are removed from the refrigerator, and diluted with pure DMSO to 50× of the level needed; and then the compounds are diluted with deionized water to 4× of the level needed;
# Preparation of 1.33× enzymatic buffer: 5× enzymatic buffer (from HTRF kit) is diluted to 1.33× with deionized water, and appropriate components of the final level 1.33× are added: 1.33 mmol/L dithiothreitol (DTT) and 1.33 mmol/L MgCl2;
# Preparation of kinase working solution: Met is diluted to 2× final level required, 0.2 ng/μL, with 1.33× enzymatic buffer; […]
# Reading HTRF signal: PHERAstar FS is used to read the testing signal, and its setting is as following:
# For the original data read from each well, ratio=665 nm/620 nm; […]
# [1] = In vivo pharmacokinetic study in rats
# Protocol: An In Vivo Pharmacokinetic Study in Rats
# For intravenous injection, rats are given a dose of 1 mg/kg. For oral administration, rats are given a dose of 5 mg/kg. […] The whole blood is centrifuged at 8000 rpm for 5 min to collect plasma, which is then transferred to 96-well pallet, and stored at −20° C. till LC-MS/MS testing.
# Pharmacokinetic parameters among rats after medication are estimated using the non-compartment model of software WinNonlin.
# The peak concentration, Cmax: the actual measurements are used;
# U87MG tumor = test: Tumor xenograft model, U87MG, tumor growth inhibition; format: in vivo, nude mice (BALB/cA nu/nu); conditions: for Tumor growth inhibition rate, % TGI: day 22
# Chain of Axl kinase (P30530 26-894): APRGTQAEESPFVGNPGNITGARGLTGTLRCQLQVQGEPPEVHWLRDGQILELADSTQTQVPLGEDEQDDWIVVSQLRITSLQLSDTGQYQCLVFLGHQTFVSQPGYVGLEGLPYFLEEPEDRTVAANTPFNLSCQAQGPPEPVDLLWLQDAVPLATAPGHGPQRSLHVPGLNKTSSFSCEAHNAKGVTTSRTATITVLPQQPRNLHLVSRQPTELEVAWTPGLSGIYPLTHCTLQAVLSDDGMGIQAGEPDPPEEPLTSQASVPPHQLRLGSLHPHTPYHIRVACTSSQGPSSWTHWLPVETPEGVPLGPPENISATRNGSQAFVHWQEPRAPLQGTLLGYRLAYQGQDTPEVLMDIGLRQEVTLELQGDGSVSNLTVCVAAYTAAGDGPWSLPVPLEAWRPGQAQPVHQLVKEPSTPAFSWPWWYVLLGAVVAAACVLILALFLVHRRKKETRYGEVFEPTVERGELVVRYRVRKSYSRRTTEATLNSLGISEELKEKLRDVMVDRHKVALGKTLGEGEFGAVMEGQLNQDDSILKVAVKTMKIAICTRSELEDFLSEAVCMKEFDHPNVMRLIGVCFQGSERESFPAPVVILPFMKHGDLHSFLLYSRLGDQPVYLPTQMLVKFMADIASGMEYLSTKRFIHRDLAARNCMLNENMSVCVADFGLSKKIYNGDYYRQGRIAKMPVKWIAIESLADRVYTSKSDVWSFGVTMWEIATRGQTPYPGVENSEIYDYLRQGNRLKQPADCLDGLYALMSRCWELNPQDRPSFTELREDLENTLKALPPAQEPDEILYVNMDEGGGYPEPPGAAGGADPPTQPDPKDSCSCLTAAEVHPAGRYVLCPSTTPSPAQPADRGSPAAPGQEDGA
# Chain of RET (P07949 29-1114): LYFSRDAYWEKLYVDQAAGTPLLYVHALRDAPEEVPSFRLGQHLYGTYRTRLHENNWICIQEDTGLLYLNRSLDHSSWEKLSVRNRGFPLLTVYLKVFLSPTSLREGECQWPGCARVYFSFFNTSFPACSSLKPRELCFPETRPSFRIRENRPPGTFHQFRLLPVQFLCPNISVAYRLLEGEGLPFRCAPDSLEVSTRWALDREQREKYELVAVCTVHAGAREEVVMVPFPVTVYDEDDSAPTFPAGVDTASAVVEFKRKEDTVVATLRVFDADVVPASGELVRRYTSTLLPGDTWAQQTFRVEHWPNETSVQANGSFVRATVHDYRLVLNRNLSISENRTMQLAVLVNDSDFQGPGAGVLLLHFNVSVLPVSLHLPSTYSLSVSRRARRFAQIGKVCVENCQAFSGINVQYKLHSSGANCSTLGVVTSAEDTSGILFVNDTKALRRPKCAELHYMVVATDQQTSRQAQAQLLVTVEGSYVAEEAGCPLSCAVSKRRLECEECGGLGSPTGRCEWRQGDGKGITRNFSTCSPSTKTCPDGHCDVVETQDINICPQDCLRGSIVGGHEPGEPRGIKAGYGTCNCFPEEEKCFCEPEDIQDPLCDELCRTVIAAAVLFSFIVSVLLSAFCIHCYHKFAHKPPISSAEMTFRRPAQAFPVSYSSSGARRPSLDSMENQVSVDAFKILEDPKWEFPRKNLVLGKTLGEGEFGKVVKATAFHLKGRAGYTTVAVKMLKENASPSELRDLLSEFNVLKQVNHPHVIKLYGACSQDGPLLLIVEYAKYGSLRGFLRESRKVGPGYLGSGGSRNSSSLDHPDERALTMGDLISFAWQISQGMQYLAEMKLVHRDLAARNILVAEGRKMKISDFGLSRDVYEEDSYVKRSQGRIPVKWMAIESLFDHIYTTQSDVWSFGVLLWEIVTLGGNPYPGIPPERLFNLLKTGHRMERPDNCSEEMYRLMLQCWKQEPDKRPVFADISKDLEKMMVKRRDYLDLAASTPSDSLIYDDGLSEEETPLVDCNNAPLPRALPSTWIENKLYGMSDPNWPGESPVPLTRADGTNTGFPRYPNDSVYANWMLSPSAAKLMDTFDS
# Chain of c-Met (h) (P08581 25-1390): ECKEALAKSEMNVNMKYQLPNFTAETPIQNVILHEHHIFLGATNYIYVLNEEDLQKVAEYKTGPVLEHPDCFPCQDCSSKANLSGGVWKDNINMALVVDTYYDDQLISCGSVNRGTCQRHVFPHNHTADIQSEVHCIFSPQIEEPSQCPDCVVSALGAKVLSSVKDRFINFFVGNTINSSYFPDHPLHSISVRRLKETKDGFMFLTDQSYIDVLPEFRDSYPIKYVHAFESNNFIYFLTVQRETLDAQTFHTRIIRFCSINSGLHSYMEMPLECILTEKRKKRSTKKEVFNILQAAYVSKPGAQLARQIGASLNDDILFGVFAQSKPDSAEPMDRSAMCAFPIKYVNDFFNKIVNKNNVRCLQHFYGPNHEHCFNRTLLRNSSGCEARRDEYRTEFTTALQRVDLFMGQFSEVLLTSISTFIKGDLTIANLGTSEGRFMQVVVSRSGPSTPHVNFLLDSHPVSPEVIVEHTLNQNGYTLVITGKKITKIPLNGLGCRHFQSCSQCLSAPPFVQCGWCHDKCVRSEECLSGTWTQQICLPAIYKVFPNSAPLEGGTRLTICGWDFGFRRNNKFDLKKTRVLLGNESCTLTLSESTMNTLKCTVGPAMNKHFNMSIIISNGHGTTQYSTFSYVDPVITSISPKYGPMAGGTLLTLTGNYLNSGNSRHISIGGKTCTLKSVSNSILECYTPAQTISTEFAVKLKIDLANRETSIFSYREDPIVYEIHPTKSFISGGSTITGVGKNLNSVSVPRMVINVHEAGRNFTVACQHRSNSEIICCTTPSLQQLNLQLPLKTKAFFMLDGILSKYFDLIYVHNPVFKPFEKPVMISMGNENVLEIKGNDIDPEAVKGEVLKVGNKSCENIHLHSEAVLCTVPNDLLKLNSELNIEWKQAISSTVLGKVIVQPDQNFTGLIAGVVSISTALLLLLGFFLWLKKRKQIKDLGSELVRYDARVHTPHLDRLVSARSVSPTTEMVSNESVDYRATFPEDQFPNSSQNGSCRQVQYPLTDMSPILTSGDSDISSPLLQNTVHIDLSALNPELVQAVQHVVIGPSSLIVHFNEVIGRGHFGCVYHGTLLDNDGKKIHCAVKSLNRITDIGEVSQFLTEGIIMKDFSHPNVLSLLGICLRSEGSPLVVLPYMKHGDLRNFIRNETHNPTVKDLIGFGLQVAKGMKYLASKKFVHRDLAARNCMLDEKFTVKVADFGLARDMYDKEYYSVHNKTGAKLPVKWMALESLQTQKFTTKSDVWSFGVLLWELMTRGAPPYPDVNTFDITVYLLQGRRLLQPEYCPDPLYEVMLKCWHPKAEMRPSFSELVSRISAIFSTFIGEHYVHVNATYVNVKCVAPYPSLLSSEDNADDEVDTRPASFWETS
Compound,IC50 (c-Met (h)) [nM],IC50 (Axl kinase) [nM],IC50 (RET) [nM],CL ([1]; 5 mg/kg i.g.) [mL/min/kg],Vz ([1]; 5 mg/kg i.g.) [L/kg],"AUC(0-t) ([1]; rat, plasma, iv, 1 mg/kg i.v.) [ng·h/mL]","Cmax ([1]; rat, plasma, iv, 1 mg/kg i.v.) [ng/mL]","clearance ([1]; rat, plasma, iv, 1 mg/kg i.v.) [mL/min/kg]","half-life ([1]; rat, plasma, iv, 1 mg/kg i.v.) [h]","Vd ([1]; rat, plasma, iv, 1 mg/kg i.v., read-out: Vz) [L/kg]","bioavailability ([1]; rat, plasma, oral, 5 mg/kg i.g. vs 1 mg/kg i.v., read-out: F (absolute bioavailability)) [%]","AUC(0-t) ([1]; rat, plasma, po, 5 mg/kg i.g.) [ng·h/mL]","Cmax ([1]; rat, plasma, po, 5 mg/kg i.g.) [ng/mL]","half-life ([1]; rat, plasma, po, 5 mg/kg i.g.) [h]","Tumor growth inhibition rate, % TGI (U87MG tumor; 3 mg/kg p.o. QD) [%]","Tumor growth inhibition rate, % TGI (U87MG tumor; 10 mg/kg p.o. QD) [%]",Regression of tumor (tumor regression rate) (U87MG tumor; 6 animals per group)
"CC(C)(O)COc1ccc2c(Oc3ccc(Nc4nccc5[nH]cc(-c6ccccc6)c(=O)c45)cc3F)ccnc2c1 [Example 7, 5-((3-fluoro-4-((7-(2-hydroxy-2-methylpropoxy)quinolin-4-yl)oxy)phenyl)amino)-3-phenyl-1,6-naphthyridin-4(1H)-one]",7.4,14.9,53,–,–,–,–,–,–,–,–,–,–,–,–,–,–
"CC(C)(O)COc1ccc2c(Oc3ccc(Nc4nccc5[nH]cc(-c6ccc(F)cc6)c(=O)c45)cc3F)ccnc2c1 [Example 4, 5-((3-fluoro-4-((7-(2-hydroxy-2-methylpropoxy)quinolin-4-yl)oxy)phenyl)amino)-3-(4-fluorophenyl)-1,6-naphthyridin-4(1H)-one]",–,15.7,62,2,1.46,11500,10800,0.5,9.97,0.47,71.8,41300,4310,8.37,87.0,105.9,is 100% (6/6)

# Reference: patent publication US9938274B1, “Naphthyridine compounds, medical combinations and use thereof” (Nanjing Natinefy Pharmatech Co., Ltd., priority 2016, dated 2018)
